The assay has as its target Poly [ADP-ribose] polymerase 1 (Homo sapiens, UniProt P09874). The experiment in a line: Enzyme Inhibitory Assay: The activity of the compounds according to the present invention to inhibit the PARP-1 enzyme was examined using a PARP Assay kit (4671-096-K) purchased from Trevigen. The assay was performed following a modified previously reported method by Lee et al [Methods Find, Exp. Clin. Pharmacol., 27, 617-622, 2005].Histone was coated on 384-well plate, which is a small volume PS plate (784101) of Greiner Bio-One, and left at 25 C. for 2 hours. After that, the plate was rinsed four times with PBS (7.5 mM Na2HPO4, 2.5 mM NaH2PO4, 145 mM NaCl, pH 7.4), and in order to prevent non-specific reaction, the Strep-diluent (provided from kit of Trevigen) was added and left at 25 C. for one hour. After one hour, the plate was again rinsed with PBS four times, and the compounds of the Examples in various concentrations were put into reactant containing PARP-1 enzyme (0.12 unit/well), 2x PARP cocktail.
Poly [ADP-ribose] polymerase 1, sequence (P09874 whole entry): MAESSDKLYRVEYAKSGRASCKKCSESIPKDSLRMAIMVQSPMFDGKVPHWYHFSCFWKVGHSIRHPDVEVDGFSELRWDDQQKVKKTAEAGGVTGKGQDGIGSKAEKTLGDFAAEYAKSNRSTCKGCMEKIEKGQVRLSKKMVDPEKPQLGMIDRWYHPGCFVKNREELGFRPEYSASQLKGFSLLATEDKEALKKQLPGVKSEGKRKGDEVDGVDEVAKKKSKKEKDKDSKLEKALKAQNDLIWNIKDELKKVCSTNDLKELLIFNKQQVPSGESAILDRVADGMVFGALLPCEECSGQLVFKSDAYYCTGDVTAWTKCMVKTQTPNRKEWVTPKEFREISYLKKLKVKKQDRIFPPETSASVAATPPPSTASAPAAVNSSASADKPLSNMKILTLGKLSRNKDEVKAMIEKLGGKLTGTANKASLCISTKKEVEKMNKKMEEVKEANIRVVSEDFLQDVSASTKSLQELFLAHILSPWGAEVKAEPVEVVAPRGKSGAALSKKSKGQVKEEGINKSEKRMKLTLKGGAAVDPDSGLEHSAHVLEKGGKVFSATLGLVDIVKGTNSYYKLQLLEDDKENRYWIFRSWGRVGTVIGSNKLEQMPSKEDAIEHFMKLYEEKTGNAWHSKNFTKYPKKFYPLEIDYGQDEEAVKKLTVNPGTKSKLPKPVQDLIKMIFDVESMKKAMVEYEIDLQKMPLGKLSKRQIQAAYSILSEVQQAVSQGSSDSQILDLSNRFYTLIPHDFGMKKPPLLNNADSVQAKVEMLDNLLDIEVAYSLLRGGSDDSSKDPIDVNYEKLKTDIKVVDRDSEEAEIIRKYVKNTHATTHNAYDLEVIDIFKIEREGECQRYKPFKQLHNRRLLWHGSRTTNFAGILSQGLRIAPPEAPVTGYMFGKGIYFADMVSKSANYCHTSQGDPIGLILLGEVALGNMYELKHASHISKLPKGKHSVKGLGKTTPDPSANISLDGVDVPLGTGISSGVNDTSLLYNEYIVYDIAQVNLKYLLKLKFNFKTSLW
A word on the IC50: it is the concentration at which inhibition is half-maximal. A low value points to higher potency. Consider `CN(C)CCOc1ccc2c3c(c(=O)[nH]c2c1)CCCN3`, for which it took 1620 nM to reach half-maximal inhibition (IC50). That is a single-digit micromolar value.

Consider `CN(C)Cc1cc(O)c2c3c(c(=O)[nH]c2c1)CCCN3`, for which it took 750 nM to reach half-maximal inhibition (IC50). The value for `COc1cc(C[N+](C)(C)C2CCCC2)cc2[nH]c(=O)c3c(c12)NCCC3` was 290 nM.

The record behind these values is ChEMBL document CHEMBL3638589, “Tricyclic derivative or pharmaceutically acceptable salts thereof, preparation method thereof, and pharmaceutical composition containing the same” (2014).
